This note sets out measurements from patent US20160199393A1, “METHODS OF TREATING BRAIN ISCHEMIA OR HYPOXIA” (China Medical University, priority 2015, published 2016).

The target of assay [1] is T1, system xc− (Mus musculus, UniProt Q9WTR6).
T1 construct: endogenous in cells; host or cells: primary cortical cells from E17 wild-type C57BL/6J mouse embryos, exposed to OGDR
T1 sequence (Q9WTR6 1-502): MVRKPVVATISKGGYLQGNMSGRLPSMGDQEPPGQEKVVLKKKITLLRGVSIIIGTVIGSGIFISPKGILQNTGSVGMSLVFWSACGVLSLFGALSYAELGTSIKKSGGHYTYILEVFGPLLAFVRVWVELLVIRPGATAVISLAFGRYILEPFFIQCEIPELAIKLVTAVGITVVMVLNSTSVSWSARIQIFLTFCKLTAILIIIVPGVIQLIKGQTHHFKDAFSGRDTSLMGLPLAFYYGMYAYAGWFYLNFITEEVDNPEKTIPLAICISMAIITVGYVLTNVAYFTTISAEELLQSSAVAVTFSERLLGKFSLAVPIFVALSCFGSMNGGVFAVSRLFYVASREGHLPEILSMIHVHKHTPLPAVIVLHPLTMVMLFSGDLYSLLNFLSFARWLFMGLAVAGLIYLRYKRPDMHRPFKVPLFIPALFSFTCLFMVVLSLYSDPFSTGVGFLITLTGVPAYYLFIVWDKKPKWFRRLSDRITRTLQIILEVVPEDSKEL
T1 sequence (P10852 1-526 partner): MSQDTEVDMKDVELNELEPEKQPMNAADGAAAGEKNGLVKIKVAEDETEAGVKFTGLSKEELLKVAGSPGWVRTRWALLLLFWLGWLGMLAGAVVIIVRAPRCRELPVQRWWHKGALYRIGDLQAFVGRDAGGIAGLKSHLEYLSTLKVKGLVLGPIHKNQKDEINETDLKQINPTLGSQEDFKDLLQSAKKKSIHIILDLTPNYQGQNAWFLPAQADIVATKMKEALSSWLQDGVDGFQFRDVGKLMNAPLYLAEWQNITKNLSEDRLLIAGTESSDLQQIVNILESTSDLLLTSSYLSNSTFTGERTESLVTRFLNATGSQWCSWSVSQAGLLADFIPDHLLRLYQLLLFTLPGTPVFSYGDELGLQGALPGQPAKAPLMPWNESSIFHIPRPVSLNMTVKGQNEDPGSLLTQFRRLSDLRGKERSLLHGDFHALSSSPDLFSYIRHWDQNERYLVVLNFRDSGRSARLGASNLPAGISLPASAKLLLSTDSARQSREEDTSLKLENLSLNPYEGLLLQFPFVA
Nature of the assay: Extracellular glutamate content in WT cortical cells exposed to OGDR. In kind it is cell-based. The note with it: 24 h after reperfusion, 10 μM (SAS 500 μM). The procedure: (§1) Primary cortical cells were prepared from cerebral cortices of wild-type C57BL/6J or homozygote xCT^−/− mouse embryos in embryonic day 17 as previously described with modification (Goldberg M P, Choi D W. Combined oxygen and glucose deprivation in cortical cell culture: calcium-dependent and calcium-independent mechanisms of neuronal injury. The Journal of neuroscience: the official journal of the Society for Neuroscience, 1993; 13(8):3510-24, which is incorporated here by reference).

Assay [2] relates to WT cortical cells. Kind of assay: Lactate dehydrogenase (LDH) level in WT cortical cells after OGD/OGDR. In kind it is cell-based, mouse. As to conditions: OGDR, 24 h after reperfusion, 10 μM (SAS 500 μM). The procedure: as §1
The LDH assay was carried out at 24 hours after reperfusion. *P<0.01 compared to drugs-untreated cells (Un), one-way ANOVA. Error bars denote the standard deviation among triplicate experiments.

Assay [3] concerns neurons. Kind of assay: Annexin V flow cytometric apoptosis assay after OGDR, neurons. In kind it is cell-based, mouse. As to conditions: WT cortical cells, 24 h after reperfusion, 10 μM (SAS 500 μM). The protocol:
(§2) Annexin V staining was performed to determine cell apoptosis using the Annexin V-FITC Apoptosis Detection Kit (Sigma-Aldrich) for 10 min at room temperature according to the manufacturers instructions, and then flow cytometric analysis was performed.
(§3) The three-color staining flow cytometric assay using allophycocyanin-microtubule-associated protein 2 (MAP2) for neuron staining, phycoerythrin (PE)-GFAP for astrocyte staining and FITC-annexin V for apoptotic cell staining was performed to count the numbers of neurons, astrocytes, and apoptotic cells. FIGS. 21A and […] show the results of apoptosis in wild type (WT) and xCT^−/− cortical cells treated with OGDR at 24 h after reperfusion. *P<0.01 compared to WT without OGDR, Student's t-test. ^#P<0.01 compared to WT with OGDR, Student's t-test. From FIGS. 21A and 21B it was observed that that smaller numbers of apoptotic cells were present in xCT^−/− neurons and astrocytes after OGDR treatment.
On the technique in general: A flow cytometer gives signals particle by particle.

In assay [4] the test system is astrocytes. Kind of assay: Annexin V flow cytometric apoptosis assay after OGDR, astrocytes. In kind it is cell-based, mouse. As to conditions: WT cortical cells, 24 h after reperfusion, 10 μM (SAS 500 μM). The protocol:
as §2, §3

In assay [5] the test system is ischemic cortex. Nature of the assay: Microdialysis of extracellular glutamate in ischemic cortex of rats with CIR. In kind it is in vivo, rat.
Experimental: (§4) Eight to ten-week-old male adult male Sprague-Dawley rats, C57BL/6J mice and xCT^−/− mice were anesthetized with 1.5% isoflurane in oxygen, allowed breathing spontaneously, and body temperature was maintained at 37° C. with a heat lamp during surgery for right middle cerebral artery ligation and bilateral common carotid artery clamping as previously described (Chen S T, Hsu C Y, Hogan E L, Maricq H, Balentine J D. A model of focal ischemic stroke in the rat: reproducible extensive cortical infarction. Stroke; a journal of cerebral circulation. 1986; 17(4):738-43, which is incorporated here by reference). Animals were subjected to transient cerebral ischemia for 90 min in rats and 2 h in mice.
Samples were diluted in 20 mM borate buffer at pH 9.0 and were derivatized for 1 min with N-tert-butyloxycarbonyl-L-cysteine and o-phthaldialdehyde. Samples then were separated in a 5-mm C18 reverse-phase column (220×4.6 mm) Sheri-5 (Brownlee), and glutamate was monitored by fluorescence (334 nm excitation and 433 nm emission) using an RF-10AXL fluorescence detector (Shimadzu). Standards of glutamate were assayed before and after the dialysis samples. […]
For assay [6], the system named is TUNEL-positive cells. Kind of assay: TUNEL histochemistry in the ipsilateral cerebral hemisphere of rats with CIR. In kind it is in vivo, rat.
Experimental: Animals were subjected to transient cerebral ischemia for 90 min in rats and 2 h in mice.
To detect apoptosis, a TUNEL staining Kit (DeadEnd Fluorimetric TUNEL system; Promega) was used for the TUNEL assay (Shyu W C, Lin S Z, Chiang M F, Chen D C, Su C Y, Wang H J, et al. Secretoneurin promotes neuroprotection and neuronal plasticity via the Jak2/Stat3 pathway in murine models of stroke. The Journal of clinical investigation. 2008; 118(1):133-48, which is incorporated by reference).
(§5) Rats were treated intraperitoneal injection with either vehicle, SAS (5 mg/kg/day) or the mixture of sulfapyridine (5-ASA, 3.12 mg/kg/day) and salicylate (SP, 1.72 mg/kg) for 3 days after brain ischemia.
Assay [7] deals with cortical infarct. Nature of the assay: MRI infarct volume in rats with CIR. In kind it is in vivo, rat. As to conditions: day 28 after reperfusion.
Experimental: as §4
MRI was performed on rats under anesthesia in a General Electric imaging system (R4; GE) at 3.0 T. Brains were scanned in 6-8 coronal image slices, each 2 mm thick without any gaps. […] The area of infarct was drawn manually from slice to slice, and the volume was then calculated by internal volume analysis software (Voxtool; GE) (Shyu W C, Lin S Z, Chiang M E, Chen D C, Su C Y, Wang H J, et al. Secretoneurin promotes neuroprotection and neuronal plasticity via the Jak2/Stat3 pathway in murine models of stroke. The Journal of clinical investigation. 2008; 118(1):133-48, which is incorporated by reference). […]
For assay [8], the system named is rats with CIR. Nature of the assay: Neurological behavioral measurements in rats with CIR. In kind it is in vivo, rat.
Experimental: as §4
Behavioral assessments were performed 3 days before cerebral ischemia and 72 hours after cerebral ischemia. The tests measured body asymmetry and locomotor activity. Furthermore, grip strength was analyzed using Grip Strength Meter (TSE-Systems) as previously described with modification. In brief, the percentage of improvement in grip strength was measured on each fore limb separately and was calculated as the ratio between mean strength of 20 pulls of the side contralateral to the ischemia and the ipsilateral side. In addition, the ratio of grip strength after treatment to baseline was also calculated, and changes were presented as percent of baseline (Shyu W C, Lin S Z, Chiang M F, Chen D C, Su C Y, Wang H J, et al. Secretoneurin promotes neuroprotection and neuronal plasticity via the Jak2/Stat3 pathway in murine models of stroke. The Journal of clinical investigation. 2068; 118(1):133-48, which is incorporated by reference).
as §5
Assay [9] has as its system NMDAR. The note with it: WT cortical cells, OGDR, 24 h after reperfusion; 10 μM (SAS 500 μM).
For assay [10], the system named is cortical infarct. Kind of assay: TTC staining infarct volume in rats with CIR. In kind it is in vivo, rat. As to conditions: 30 mg/kg ip for 3 days, compared to vehicle.

With `O=C(O)c1cc(/N=N/c2ccc(S(=O)(=O)Nc3ccccn3)cc2)ccc1O` [sulfasalazine], the “OGDR-induced glutamate release (extracellular glutamate content)” value in [1] was “inhibited”. Also, the LDH levels entry in assay [2] is “inhibited”. Also, the apoptosis in neurons result in assay [3] is reported as “inhibited”. Further, the apoptosis in astrocytes result in [4] is reported as “inhibited”. In addition, in assay [5] (5 mg/kg/day BID for 3 days, 4 to 72 h after reperfusion), the “extracellular glutamate content in ischemic cortex” value is “reduction”. The “suppression of glutamate efflux in ischemic cortex at different dosages” value in [5] (different dosages) was “inhibited CIR-induced glutamate release in a dose-dependent manner”. Also, the “inhibition of TUNEL-positive cells at different dosages” value in [6] (different dosages) was “decreased CIR-induced apoptosis in a dose-dependent manner”. Besides, the “number of TUNEL-positive cells” value in assay [6] (ischemic penumbra, 24 h after reperfusion) is given as “significantly reduced”. Besides, the “cortical infarct size (MRI)” value in [7] is “remarkable size reductions”. Besides, the “locomotor activity (number of vertical movements, vertical activity, vertical movement time)” value in assay [8] (between 7 and 28 days after CIR, compared with controls) is on record as “significantly higher”. For the same compound, the “improvement in grip strength” value in assay [8] (day 28 after reperfusion, compared with control groups) is recorded as “higher percentage of improvement”. In addition, the body asymmetry entry in assay [8] (days 7 to 28, compared with control rats) is on record as “significantly reduced”. The “hyperfunction of NMDAR (binding radioactivity of 18F-FSAG)” value in [9] is recorded as “inhibited”.

For `CNC(=O)c1cc(Oc2ccc(NC(=O)Nc3ccc(Cl)c(C(F)(F)F)c3)cc2)ccn1` [sorafenib], the “OGDR-induced glutamate release (extracellular glutamate content)” value in [1] is “inhibited”. The LDH levels result in assay [2] was “inhibited”. The apoptosis in neurons result in assay [3] was “inhibited”. For the same compound, the apoptosis in astrocytes result in assay [4] is given as “inhibited”. Besides, the “cortical infarct volume (TTC staining)” value in assay [10] is listed as “significantly smaller”. Also, in assay [9], the “hyperfunction of NMDAR (binding radioactivity of 18F-FSAG)” value is “inhibited”.
